Data published in ChEMBL document CHEMBL2311480, “Inhibitors of apoptosis in testicular germ cells: synthesis and biological evaluation of some novel IBTs bearing sulfonamide moiety” (2013).

Experiment: Inhibition of malathion-induced apoptosis in goat testicular germ cells assessed as cell survival at 10 uM (malathion treated control = 41 +/- 6.24%)
Type: functional
Conditions: Capra hircus; read-out: Survival

Row | SMILES | viability at 10 µM [%]
1 | NS(=O)(=O)c1ccc2c(c1)sc1nc(-c3ccccc3)cn12 | 50
2 | Cc1ccc(-c2cn3c(n2)sc2cc(S(N)(=O)=O)ccc23)cc1 | 64
3 | NS(=O)(=O)c1ccc2c(c1)sc1nc(-c3ccc(F)cc3)cn12 | 43
4 | NS(=O)(=O)c1ccc2c(c1)sc1nc(-c3ccc(Cl)cc3)cn12 | 56
5 | NS(=O)(=O)c1ccc2c(c1)sc1nc(-c3ccc(Br)cc3)cn12 | 52
6 | NS(=O)(=O)c1ccc2c(c1)sc1nc(-c3ccc([N+](=O)[O-])cc3)cn12 | 39
7 | NS(=O)(=O)c1ccc2c(c1)sc1nc(-c3cc4ccccc4oc3=O)cn12 | 46
8 | NS(=O)(=O)c1ccc2c(c1)sc1nc(-c3cc4cc(Cl)ccc4oc3=O)cn12 | 61
9 | NS(=O)(=O)c1ccc2c(c1)sc1nc(-c3cc4cc(Br)ccc4oc3=O)cn12 | 48
10 | CCOC(=O)CC(SP(=S)(OC)OC)C(=O)OCC (stereo not given) [MALATHION] | 41
